Assay results as given in patent publication US4215069A, “Arylthiovinylcyclopropanecarboxylate intermediates” (FMC Corporation, priority 1979, dated 1980).

Legend:
[1] = system: milkweed bug (Oncopeltus faciatus [Dallas]); experiment: Initial contact activity against milkweed bug (percent kill); type: in vivo; conditions: 72 hours exposure, read-out: Percent Kill MWB, initial activity
Procedure: (§1) The test compound was dissolved in a small amount of acetone, and the acetone solution was dispersed in water containing one drop of isooctylphenyl polyethoxyethanol to make a solution having 1250 ppm (w/w) active ingredient. Aliquots of this solution were diluted with an appropriate amount of water to provide solutions containing various concentrations of active ingredient. Test organisms and techniques were as follows: the activity against Mexican bean beetle (Epilachna varivestis Muls.) and southern armyworm (Spodoptera eridania [Cram.]) was evaluated by dipping the leaves of pinto bean plants into the test solution and infesting the leaves with the appropriate immature-form insects when the foliage had dried. The activity against the pea aphid (Acyrthosiphon pisum [Harris]) was evaluated on broad bean plants whose leaves were dipped before infestation with adult aphids. The activity against twospotted spider mites (Tetranychus urticae Koch) was evaluated on pinto bean plants whose leaves were dipped after infestation with adult mites. The activity against the milkweed bug (Oncopeltus faciatus [Dallas]) was evaluated by spraying the test solutions into glass dishes or jars containing the adult insects. Following application of the compound and infestation the tests were maintained in a holding room at 80° F. and 50% relative humidity for an exposure period of 72 hours. At the end of this time the dead and living insects or mites were counted and the percent kill was calculated. Results of these tests are summarized in Table I. Most of the compounds tested were active against all the insects.

[2] = system: Mexican bean beetle (Epilachna varivestis Muls.); experiment: Initial contact activity against Mexican bean beetle (percent kill); type: in vivo; conditions: 72 hours exposure, read-out: Percent Kill MBB, initial activity
Procedure: as §1

[3] = system: southern armyworm (Spodoptera eridania [Cram.]); experiment: Initial contact activity against southern armyworm (percent kill); type: in vivo; conditions: 72 hours exposure, read-out: Percent Kill AW, initial activity
Procedure: as §1

[4] = system: pea aphid (Acyrthosiphon pisum [Harris]); experiment: Initial contact activity against pea aphid (percent kill); type: in vivo; conditions: 72 hours exposure, read-out: Percent Kill PA, initial activity
Procedure: as §1

[5] = system: twospotted spider mites (Tetranychus urticae Koch); experiment: Initial contact activity against twospotted spider mite (percent kill); type: in vivo; conditions: 72 hours exposure, read-out: Percent Kill SM, initial activity
Procedure: as §1

[6] = system: Milkweed bug; experiment: 7-day residual contact activity against milkweed bug (percent kill); type: in vivo, Oncopeltus faciatus; conditions: Oncopeltus fasciatus, 168 h, treated surface aged seven days in light and air, read-out: Percent Kill MWB, 7-day residual activity
Procedure: as §1
(§2) The residual contact activity of certain of the compounds was determined on the same organisms using the techniques described above, except that in each case the treated surface was allowed to dry and was exposed to normal light and air for seven days before introduction of the mites or insects. The seven day residual activity was minimal for the mite but substantial against the remaining organisms. Again, the remarkable activity of some of these compounds against milkweed bug and Mexican bean beetle was noted.

[7] = system: Southern armyworm; experiment: 7-day residual contact activity against southern armyworm (percent kill); type: in vivo; conditions: Spodoptera eridania, 168 h, treated surface aged seven days in light and air, read-out: Percent Kill AW, 7-day residual activity
Procedure: as §1, §2

[8] = system: Pea aphid; experiment: 7-day residual contact activity against pea aphid (percent kill); type: in vivo; conditions: Acyrthosiphon pisum, 168 h, treated surface aged seven days in light and air, read-out: Percent Kill PA, 7-day residual activity
Procedure: as §1, §2

[9] = system: Twospotted spider mite; experiment: 7-day residual contact activity against twospotted spider mite (percent kill); type: in vivo; conditions: Tetranychus urticae, 168 h, treated surface aged seven days in light and air, read-out: Percent Kill SM, 7-day residual activity
Procedure: as §1, §2

[10] = system: Mexican bean beetle; experiment: 7-day residual contact activity against Mexican bean beetle (percent kill); type: in vivo; conditions: Epilachna varivestis, 168 h, treated surface aged seven days in light and air, read-out: Percent Kill MBB, 7-day residual activity
Procedure: as §1, §2

## CC1(C)C(C=CSc2ccccc2)C1C(=O)OCc1cccc(Oc2ccccc2)c1 (mixture of isomers) [Example 1, 3-phenoxybenzyl cis,trans-3-[2-(E,Z)-phenylthioethenyl]-2,2-dimethylcyclopropanecarboxylate]
[1]
  mortality at 20 ppm: 10%
  mortality at 78 ppm: 10%
  mortality at 312 ppm: 5%
  mortality at 1250 ppm: 30%
[2]
  mortality at 1.2 ppm: 44%
  mortality at 5 ppm: 28%
  mortality at 20 ppm: 0%
  mortality at 78 ppm: 62%
  mortality at 1250 ppm: 100%
[3]
  mortality at 1.2 ppm: 0%
  mortality at 5 ppm: 0%
  mortality at 20 ppm: 0%
  mortality at 78 ppm: 0%
  mortality at 1250 ppm: 0%
[4]
  mortality at 20 ppm: 0%
  mortality at 78 ppm: 0%
  mortality at 312 ppm: 0%
  mortality at 1250 ppm: 0%
[5]
  mortality at 20 ppm: 0%
  mortality at 78 ppm: 0%
  mortality at 312 ppm: 0%
  mortality at 1250 ppm: 0%
[6]
  activity at 78 ppm: 5%
  activity at 312 ppm: 10%
  activity at 1250 ppm: 0%
[7]
  activity at 20 ppm: 0%
  activity at 78 ppm: 0%
  activity at 312 ppm: 0%
  activity at 1250 ppm: 0%
[8]
  activity at 78 ppm: 0%
  activity at 312 ppm: 10%
  activity at 1250 ppm: 30%
[9]
  activity at 1250 ppm: 0%

## CC1(C)C(C=CSc2ccccc2)C1C(=O)OC(C#N)c1cccc(Oc2ccccc2)c1 (mixture of isomers) [Example 2, α-cyano-3-phenoxybenzyl cis,trans-3-[2-(E,Z)-phenylthioethenyl]-2,2-dimethylcyclopropanecarboxylate]
[1]
  mortality at 20 ppm: 0%
  mortality at 78 ppm: 20%
  mortality at 312 ppm: 90%
  mortality at 1250 ppm: 100%
[2]
  mortality at 1.2 ppm: 6%
  mortality at 5 ppm: 0%
  mortality at 20 ppm: 22%
  mortality at 78 ppm: 80%
  mortality at 1250 ppm: 100%
[3]
  mortality at 1.2 ppm: 0%
  mortality at 5 ppm: 0%
  mortality at 20 ppm: 0%
  mortality at 78 ppm: 0%
  mortality at 1250 ppm: 41%
[4]
  mortality at 20 ppm: 0%
  mortality at 78 ppm: 0%
  mortality at 312 ppm: 5%
  mortality at 1250 ppm: 75%
[5]
  mortality at 20 ppm: 0%
  mortality at 78 ppm: 0%
  mortality at 312 ppm: 0%
  mortality at 1250 ppm: 0%
[6]
  activity at 78 ppm: 5%
  activity at 312 ppm: 0%
  activity at 1250 ppm: 5%
[7]
  activity at 20 ppm: 0%
  activity at 78 ppm: 0%
  activity at 312 ppm: 0%
  activity at 1250 ppm: 0%
[8]
  activity at 78 ppm: 30%
  activity at 312 ppm: 23%
  activity at 1250 ppm: 100%
[9]
  activity at 1250 ppm: 0%

## CC1(C)C(C=C(Cl)Sc2ccccc2)C1C(=O)OC(C#N)c1cccc(Oc2ccccc2)c1 (mixture of isomers) [Example 3, α-cyano-3-phenoxybenzyl cis,trans-3-[2-(E,Z)-chloro-2-phenylthioethenyl]-2,2-dimethylcyclopropanecarboxylate]
[1]
  mortality at 20 ppm: 70%
  mortality at 78 ppm: 100%
  mortality at 312 ppm: 100%
  mortality at 1250 ppm: 100%
[2]
  mortality at 1.2 ppm: 80%
  mortality at 5 ppm: 100%
  mortality at 20 ppm: 92%
  mortality at 78 ppm: 92%
  mortality at 1250 ppm: 94%
[3]
  mortality at 1.2 ppm: 0%
  mortality at 5 ppm: 0%
  mortality at 20 ppm: 0%
  mortality at 78 ppm: 75%
  mortality at 1250 ppm: 100%
[4]
  mortality at 20 ppm: 27%
  mortality at 78 ppm: 60%
  mortality at 312 ppm: 85%
  mortality at 1250 ppm: 100%
[5]
  mortality at 20 ppm: 0%
  mortality at 78 ppm: 0%
  mortality at 312 ppm: 0%
  mortality at 1250 ppm: 49%
[6]
  activity at 78 ppm: 70%
  activity at 312 ppm: 85%
  activity at 1250 ppm: 100%
[10]; 2.5 ppm
  activity at 2.5 ppm: 66%
[10]; 10 ppm
  activity at 10 ppm: 75%
[10]; 39 ppm
  activity at 39 ppm: 100%
[10]; 78 ppm
  activity at 78 ppm: 100%
[10]; 1250 ppm
  activity at 1250 ppm: 97%
[7]
  activity at 20 ppm: 62%
  activity at 78 ppm: 56%
  activity at 312 ppm: 53%
  activity at 1250 ppm: 100%
[8]
  activity at 78 ppm: 50%
  activity at 312 ppm: 65%
  activity at 1250 ppm: 100%
[9]
  activity at 1250 ppm: 0%

## CC1(C)C(C=C(Br)Sc2ccccc2)C1C(=O)OCc1cccc(Oc2ccccc2)c1 (mixture of isomers) [Example 10, 3-phenoxybenzyl cis,trans-3-[2-(E,Z)-bromo-2-phenylthioethenyl]-2,2-dimethylcyclopropanecarboxylate]
[1]
  mortality at 78 ppm: 5%
  mortality at 312 ppm: 71%
  mortality at 1250 ppm: 100%
[2]
  mortality at 20 ppm: 72%
  mortality at 78 ppm: 95%
[2]; 312 ppm
  mortality at 312 ppm: 94%
[3]
  mortality at 78 ppm: 0%
  mortality at 1250 ppm: 100%
[3]; 312 ppm
  mortality at 312 ppm: 44%
[4]
  mortality at 78 ppm: 24%
  mortality at 312 ppm: 94%
  mortality at 1250 ppm: 95%
[5]
  mortality at 1250 ppm: 81%
